Laboratory results as given in patent US6407064B2, “Aminoalcohol derivative and medicament comprising the same” (Seikagaku Corporation, priority 1999, dated 2002).
One block for each compound: values may come before it.

Assays:
[1] = system: enzyme for ganglioside GM3 synthesis, mouse B16 melanoma cell; assay: Activity of enzyme for ganglioside GM3 synthesis (14C-Gal incorporated in total lipid fraction); type: cell-based; conditions: relative value, control regarded as 100; test compound 24 μM, 24 hours; 14C-Gal incorporation
Method: The gangliosides produced by mouse B16 melanoma cell are almost composed of ganglioside GM3. Therefore, the activity of the enzyme for ganglioside GM3 synthesis can be determined conveniently by measuring the amount of ^14C-Gal incorporated in a total lipid-extracted fraction through a liquid layer partition method.
(§1) A liquid where the cells of mouse B16 melanoma were suspended was prepared with Dulbecco modified Eagle's medium containing 10% bovine fetal serum, inoculated into a 12-well plate in an amount of 2.0×10^5 cells/ml/well, and cultured in 5% CO2 incubator at 37° C. The treatment with a test compound (24 μM) and the addition of ^14C-Gal (22.2 kBq/11.7 nmol/6 μl/well) were started through the exchange of total amount of the medium 24 hours after the culture was started. Twenty-four hours after the treatment with the test compound was started, the culture mixture was treated with PBS containing 0.02% EDTA and PBS containing 0.25% trypsin successively to recover the cells.
Then, a mixed solvent of chloroform:methanol=2:1 (3 ml) was added to the cell pellet and, after the subjection to an ultrasonication for 30 minutes, the supernatant was recovered. Furthermore, a mixed solvent of chloroform:methanol=1:1 (3 ml) was added to the residual pellet after the recovery of the supernatant, and a similar operation was carried out. The resulting supernatant was combined with the first supernatant and the whole was evaporated to dryness under a nitrogen stream. A desalinated water (1.0 ml) was added to the total lipid-extracted fraction. After having been subjected to an ultrasonication for 1 minute, the mixture was transferred into a dialysis tube and dialyzed against water for 2 days. The sample after the dialysis was transferred into a vial for liquid scintillation counter and, after the addition of scintillator, the activity of incorporating ^14C-Gal was measured on scintillation counter.
The values of activity of the compounds of the present invention are shown as relative values obtained by calculation on the basis that the value of a control (a group where no test compound was added) is regarded as 100 in Table 3 below.

[2] = system: cultured neurocytes of rat fetal cerebral cortex; assay: Activity of accelerating synapse formation (intracellular calcium ion level, fura-2); type: cell-based; conditions: relative value, L-PDMP regarded as 100; compound 20 μM; assay on 10th day of culture
Method: The activity of accelerating synapse formation was determined by measuring change of an intracellular calcium ion level resulted from the synchronized spontaneous ignition of neurocytes which is considered to show synapse activities by means of an intracellular calcium ion multipoint observation system using a calcium ion fluorescence indicator, fura-2.
Concretely, rat fetuses at the 18th day of pregnancy were taken out from Wistar rats (available from Japan SLC), and cerebral cortices of the fetuses were taken out and cut into small pieces. After having been treated with papain (manufactured by Worthington Biochemical) at 37° C. for 30 minutes, the pieces were suspended into a Dulbecco modified Eagle's medium containing 5% bovine neonatal serum and 5% equine serum and the cortices were dissociated into single cells with Cell Striner (70 μm, Falcon). Then, the cells were inoculated into a flexiperm plate coated with 0.5% polyethyleneimine (1.0×10^6 cells/500 μl/well), and was cultured in 7% CO2 incubator at 37° C. The medium was exchanged on 2nd, 5th, and 8th days after the culture had been started. The activity of the compound of the present invention was measured using the primary culture. The compound was added at the time when the medium was exchanged and the concentration of the compound was maintained to be 20 μM. Assay was carried out on 10th day after the culture had been started.
(2) Measurement of Activity of Accelerating Synapse Formation
Concretely, after the medium of each well where cells were cultured was substituted with basic salt solution (BSS), 3 μl of a DMSO solution (1 mg/ml) of a calcium ion fluorescence indicator fura-2 was added, and the whole was kept at 37° C. for 1 hour.

[3] = Tissue distribution: concentration in plasma and skeletal muscle after oral or intravenous administration; type: in vivo; conditions: rat
Method: Tissue distribution of the compound in Example 19 was compared with that of L-PDMP using 6-8 week old Wistar male rats.
As oral administration, a physiological saline containing 20 mg/ml of a test substance was administered at 100 mg/5 ml/kg, and as intravenous administration, a physiological saline containing 1.25 mg/ml of a test substance was administered to the cervical vein at 5 mg/4 ml/kg.
After the predetermined time had passed since the above administration, blood was collected from the rat cervical vein, a 3.8% sodium citrate solution was added thereto at 1/10 volume, followed by centrifugation at 3,000 rpm for 15 minutes to obtain the supernatant as a plasma sample.
Also, after the predetermined time had passed since the above administration, the skeletal muscle was collected from the femoral region of both hind legs, ice water was added thereto at 4 ml/g tissue, followed by homogenization, and the same volume of acetonitrile was added thereto, followed by vigorously stirring and centrifugation at 4000 rpm for 10 minutes to obtain the supernatant as a skeletal muscle sample.
The plasma and skeletal muscle samples were extracted by OASIS HLB solid phase extraction column (manufactured by Waters), and the concentration of the test compound in the plasma and the muscle was determined by high performance liquid chromatography (HPLC). The conditions of HPLC analysis were as follows:
Detection wavelength: 218 nm
Column: DAISO PACK SP-120-5-ODS-BP
Column temperature: 40° C.
Mobile phase: 0.1% trifluoroacetic acid solution:methanol=36:64 (for L-PDMP); 0.1% trifluoroacetic acid solution:methanol=48:52 (for the compound in Example 19)
The concentrations in the plasma and skeletal muscle of the compound in Example 19 and L-PDMP after the predetermined time has been passed since the administration of the test compounds are shown in Tables 4-6 below. The values are the mean values of at least two test samples. Specifically, Table 4, Table 5, and Table 6 show the concentrations in the plasma after the oral administration of 100 mg/kg, the concentrations in the skeletal muscle after the oral administration of 100 mg/kg, and the concentrations in the plasma after the intravenous administration of 5 mg/kg, respectively.

[4] = system: ganglioside GM3, mouse B16 melanoma cells; assay: Synthesized amount of ganglioside GM3 (HPTLC densitometry); type: cell-based; conditions: relative value, control regarded as 100, test compound 25 μM, 24 hours
Method: as §1, with “culture flask (175 cm^2)” for “12-well plate”, “0.8×10^7 cells/20 ml,” for “2.0×10^5 cells/ml/well,”, “(25” for “(24”, “was” for “and the addition of ^14C-Gal (22.2 kBq/11.7 nmol/6 μl/well) were”, “three fourths” for “total amount”
Then, a mixed solvent of chloroform:methanol=2:1 (4 ml) was added to the cell pellet and, after the subjection to an ultrasonication for 30 minutes, the cell pellet solution was allowed to stand at room temperature for a night and the supernatant was recovered. Furthermore, a mixed solvent of chloroform:methanol=1:1 (4 ml) was added to the residual pellet after the recovery of the supernatant, and a similar operation was carried out. The resulting supernatant was combined with the first supernatant and the whole was evaporated to dryness under a nitrogen stream. To the total lipid fraction was added a 0.1 N methanolic sodium hydroxide solution (2.0 ml) and the mixture was allowed to stand at 40° C. for 2 hours. Thereafter, 1 N hydrochloric acid (0.2 ml) was added thereto and the mixture was allowed to stand for 1.5 hours.
Then, the mixture was washed with n-hexane (2 ml×2) and, after the lower layer thus washed was evaporated to dryness under a nitrogen stream, the residue was desalinated by gel filtration chromatography (Sephadex LH-20 (manufactured by Amersham Pharmacia Biotech), diameter of 10 mm, height of 120 mm) using chloroform:methanol=2:1 as the eluting solvent. […] After orcinol-sulfuric acid reagent had been sprayed on the plate, it was heated at 110° C. for 5 minutes and colored spot of ganglioside GM3 was quantitatively determined by means of densitometer (a measuring wavelength of 505 nm). […]

[5] = system: GSLs which are produced starting with glucosylceramide; conditions: J. Lipid Res. 28: 565-571 (1987); cited from earlier work
[6] = target: T1, enzyme for glucosylceramide biosynthesis (Homo sapiens, UniProt Q16739); conditions: J. Lipid Res. 28: 565-571 (1987); cited from earlier work
T1 sequence (Q16739 1-394): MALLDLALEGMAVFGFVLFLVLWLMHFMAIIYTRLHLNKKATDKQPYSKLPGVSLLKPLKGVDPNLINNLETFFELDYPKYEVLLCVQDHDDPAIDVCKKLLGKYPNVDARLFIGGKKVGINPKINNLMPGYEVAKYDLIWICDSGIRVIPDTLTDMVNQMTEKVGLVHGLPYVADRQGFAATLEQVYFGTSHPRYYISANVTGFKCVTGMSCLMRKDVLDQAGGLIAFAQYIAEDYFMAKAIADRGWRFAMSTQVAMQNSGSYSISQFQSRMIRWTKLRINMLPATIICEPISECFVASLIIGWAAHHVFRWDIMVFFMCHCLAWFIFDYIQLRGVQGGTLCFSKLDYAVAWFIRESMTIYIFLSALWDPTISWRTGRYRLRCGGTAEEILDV

neurite = conditions: literature; cited from earlier work
synaptic function = conditions: Biochem. Biophys. Res. Commun. 222: 494-498 (1996); cited from earlier work

Structure (SMILES): CCCCOC(=O)NCC(=O)N[C@@H](CN1CCOCC1)[C@@H](O)c1ccccc1 [Example 3]
- Activity of accelerating glycolipid biosynthesis (Test Example 2) [1]: 98.6

Structure (SMILES): CCCCCC(=O)NCC(=O)N[C@@H](CN1CCOCC1)[C@@H](O)c1ccccc1 [Example 4, (1S,2S)-2-(n-hexanoyl)glycylamino-3-morpholino-1-phenyl-1-propanol]
- Activity of accelerating glycolipid biosynthesis (Test Example 2) [1]: 71.3

Structure (SMILES): O=C(CNC(=O)OCc1ccccc1)NCC(=O)N[C@@H](CN1CCOCC1)[C@@H](O)c1ccccc1 [Example 2]
- Activity of accelerating glycolipid biosynthesis (Test Example 2) [1]: 130.9

Structure (SMILES): O=C(CNC(=O)OCc1ccccc1)N[C@@H](CN1CCOCC1)[C@@H](O)c1ccccc1 [Example 1]
- Activity of accelerating glycolipid biosynthesis (Test Example 2) [1]: 85.2

- concentration at 10 min ([3]; male, Wistar, plasma, intravenous administration of 5 mg/kg, 10 min): 2240 ng/mL
- concentration at 25 min ([3]; male, Wistar, plasma, intravenous administration of 5 mg/kg, 25 min): 560 ng/mL
- concentration at 5 min ([3]; male, Wistar, plasma, oral administration of 100 mg/kg, 5 min): 2620 ng/mL
- concentration at 15 min ([3]; male, Wistar, plasma, oral administration of 100 mg/kg, 15 min): 8660 ng/mL
- concentration at 30 min ([3]; male, Wistar, plasma, oral administration of 100 mg/kg, 30 min): 6140 ng/mL
- concentration at 60 min ([3]; male, Wistar, plasma, oral administration of 100 mg/kg, 60 min): 950 ng/mL
- tissue distribution compared with L-PDMP ([3]; in words): higher tissue distribution than L-PDMP
Structure (SMILES): CCCCOCCOCC(=O)N[C@@H](CN1CCOCC1)[C@@H](O)c1ccccc1 [Example 19, (1S,2S)-2-(3,6-dioxadecanoyl)amino-3-morpholino-1-phenyl-1-propanol]
- Activity of synapse formation [2]: 90.8
- retention in plasma and skeletal muscle compared with L-PDMP ([3]; in words): kept in the plasma and skeletal muscle for a longer time

Structure (SMILES): CCCCOC(=O)CCC(=O)N[C@@H](CN1CCOCC1)[C@@H](O)c1ccccc1 [Example 5, (1S,2S)-2-(n-butoxy)butanedioylamino-3-morpholino-1-phenyl-1-propanol]
- Activity of synapse formation [2]: 92.5
- Glycolipid content (Test Example 3) [4]: 131.2
- Activity of accelerating glycolipid biosynthesis (Test Example 2) [1]: 122.3

Structure (SMILES): CCCCCCCCCC(=O)N[C@H](CN1CCOCC1)[C@H](O)c1ccccc1 [D-threo-PDMP, D-threo-1-phenyl-2-decanoylamino-3-morpholino-1-propanol]
- intracellular content of GSLs [5]: remarkably reduces intracellular content of all GSLs
- effect on enzyme for glucosylceramide biosynthesis [6]: specifically inhibits
- effect on neurite extension (neurite): suppresses the extension of neurite
- effect on synaptic function (synaptic function): suppresses synaptic function

Structure (SMILES): O=C(O)CCCCCCCCC(=O)N[C@@H](CN1CCOCC1)[C@@H](O)c1ccccc1 [Example 25, (1S,2S)-2-(9-carboxynonanoyl)amino-3-morpholino-1-phenyl-1-propanol]
- Glycolipid content (Test Example 3) [4]: 114.5
- Activity of accelerating glycolipid biosynthesis (Test Example 2) [1]: 89.2
